Measurements taken from PMC7224190, “Pharmacological inhibition of PRMT7 links arginine monomethylation to the cellular stress response” (Nature Communications, 2020).

Assays:
PRMT8 = PRMT8 (Homo sapiens, UniProt Q9NR22); test: biochemical; design: radiometric methyltransferase assay with tritiated SAM, IC50
Method: (§1) The methyltransferase selectivity was assessed at two compound concentrations of 1 and 10 μM by radiometric assays using tritiated-SAM. For methyltransferases: MLL1, MLL3, EZH1 (PRC2), and EZH2 (PRC2), G9a, GLP, SUV39H1, SUV39H2, SUV420H1, SUV420H2, SETD2, SETD8, SETDB1, SETD7, PRMT1, PRMT3, PRMT4, PRMT5/ MEP50 complex, PRMT6, PRMT7, PRMT8, PRMT9, PRDM9, SMYD2, SMYD3, DNMT1, and BCDIN3D the incorporation of a tritium-labeled methyl group into biotinylated substrate was monitored using scintillation proximity assay (SPA). Briefly, a 10 μL reaction containing ^3H-SAM and substrate at concentrations close to the apparent Km values for each enzyme (balanced conditions) was prepared. The reactions were quenched with 10 μL of 7.5 M guanidine hydrochloride; 180 μL of 20 mM Tris buffer (pH 8.0) were added, and the mixture was transferred to a 96-well FlashPlate and incubated for 1 h. The counts per minute (CPM) was measured on a TopCount plate reader. The CPM in the absence of compound or enzyme was defined as 100% activity and background (0%), respectively, for each dataset[74]–[76]. Selectivity of SGC8158 against 342 kinases was evaluated in a kinase panel TR-FRET assay at 1 and 0.1 μM compound in duplicates as described before. Briefly, tagged kinases were incubated with compound and staurosporine-based fluorescent probe where the binding was detected using Tb conjugated anti-tag antibody energy transfer to the probe. Excitation wavelength was 337 nm and fluorescent emission signal was measured for Tb (486 nm) and fluorescent probe (BODIPY, 515 nm). Specific and non-specific binding was determined in the absence and presence of unlabeled staurosporine. Assays using biotinylated H2B (23–37) as a substrate were performed in buffer (20 mM Tris–HCl, pH 8.5, 0.01% Tween-20, and 5 mM DTT) containing 5 nM PRMT7, 1.1 µM ^3H-SAM (Cat.# NET155V250UC; Perkin Elmer; www.perkinelmer.com) and 0.3 µM H2B (23–37). The reaction mixtures were incubated for 60 min at 23 °C. To stop the enzymatic reactions, 10 µL of 7.5 M guanidine hydrochloride was added, followed by 180 µL of buffer (20 mM Tris, pH 8.0), mixed and then transferred to a 96-well FlashPlate (Cat.# SMP103; Perkin Elmer; www.perkinelmer.com). After mixing, the reaction mixtures in Flash plates were incubated for 1 h and the CPM were measured using Topcount plate reader (Perkin Elmer, www.perkinelmer.com). The CPM counts in the absence of compound for each dataset were defined as 100% activity. In the absence of the enzyme, the CPM counts in each dataset were defined as background (0%). The IC50 values were determined using GraphPad Prism 7 software. For the kinetic analysis of HSPA8 methylation by PRMT7, the assay mixture contained 20 mM Tris–HCl, pH 8.5, 0.01% Tween-20, and 5 mM dithiothreitol (DTT), 1 mM MgCl2, 1 mM ATP where indicated, 250 nM PRMT7, fixed concentration (20 µM) of SAM, various concentrations (up to 40 µM) of HSPA8; or fixed concentration (10 µM) of HSPA8 with different concentrations of SAM (up to 20 µM). […] To determine the mode of action, the experiments were performed in the presence of fixed biotinylated H2B peptide (residues 23–37) or HSPA8 substrate concentration and increasing SAM concentration or at fixed concentration of SAM and varying concentration of the substrate. Twenty µL of reaction mixtures were incubated at 23 °C for 60 min. To stop reactions, 100 µL of 10% trichloroacetic acid (TCA) was added, mixed and transferred to filter-plates (Millipore; cat.# MSFBN6B10; www.millipore.com). Plates were centrifuged at 930 × g (Allegra X-15R—Beckman Coulter, Inc.) for 2 min followed by two additional 10% TCA washes and one ethanol wash followed by centrifugation. Plates were dried and 30 µL MicroScint-O (

PRMT9 = molecular target: T1, PRMT9 (Homo sapiens, UniProt Q6P2P2); test: biochemical; design: radiometric methyltransferase assay with tritiated SAM, IC50
T1 sequence (Q6P2P2 1-845): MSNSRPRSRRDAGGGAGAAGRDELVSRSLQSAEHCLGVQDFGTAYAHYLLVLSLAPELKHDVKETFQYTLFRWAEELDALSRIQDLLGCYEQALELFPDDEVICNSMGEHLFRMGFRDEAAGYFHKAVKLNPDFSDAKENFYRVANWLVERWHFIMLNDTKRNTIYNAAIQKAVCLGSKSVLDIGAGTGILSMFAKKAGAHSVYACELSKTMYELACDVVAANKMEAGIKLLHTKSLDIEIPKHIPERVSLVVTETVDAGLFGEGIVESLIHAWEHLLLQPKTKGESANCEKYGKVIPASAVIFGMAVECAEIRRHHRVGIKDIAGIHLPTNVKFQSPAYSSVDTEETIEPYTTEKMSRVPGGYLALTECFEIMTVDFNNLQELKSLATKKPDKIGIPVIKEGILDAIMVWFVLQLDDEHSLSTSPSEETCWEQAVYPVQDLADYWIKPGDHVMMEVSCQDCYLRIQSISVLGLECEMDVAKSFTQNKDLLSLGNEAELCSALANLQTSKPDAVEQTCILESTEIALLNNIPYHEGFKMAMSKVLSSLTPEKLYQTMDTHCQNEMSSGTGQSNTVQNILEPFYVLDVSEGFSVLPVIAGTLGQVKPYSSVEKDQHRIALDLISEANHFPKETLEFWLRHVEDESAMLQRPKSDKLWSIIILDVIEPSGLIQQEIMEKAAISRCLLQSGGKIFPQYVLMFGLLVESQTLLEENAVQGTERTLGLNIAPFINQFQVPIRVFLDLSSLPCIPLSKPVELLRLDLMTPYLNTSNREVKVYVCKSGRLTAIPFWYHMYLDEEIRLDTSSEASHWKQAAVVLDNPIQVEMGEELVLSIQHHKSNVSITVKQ
Method: as §1

Chain of PRMT8 (Q9NR22 whole entry): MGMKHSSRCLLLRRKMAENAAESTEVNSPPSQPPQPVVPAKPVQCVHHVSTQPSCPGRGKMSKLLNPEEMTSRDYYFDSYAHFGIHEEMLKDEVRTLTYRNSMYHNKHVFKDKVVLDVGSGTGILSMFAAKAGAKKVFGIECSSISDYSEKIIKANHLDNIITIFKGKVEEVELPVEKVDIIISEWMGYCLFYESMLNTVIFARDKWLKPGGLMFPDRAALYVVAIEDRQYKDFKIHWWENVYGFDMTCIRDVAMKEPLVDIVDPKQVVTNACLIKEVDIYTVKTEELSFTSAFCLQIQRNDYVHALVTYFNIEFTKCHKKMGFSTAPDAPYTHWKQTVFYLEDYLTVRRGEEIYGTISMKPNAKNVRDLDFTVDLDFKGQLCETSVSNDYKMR

In the case of `Nc1ncnc2c1ncn2[C@@H]1O[C@H](CSCCCNCc2cccc(-c3ccc(Cl)cc3)c2)[C@@H](O)[C@H]1O` [SGC8172], the IC50 (PRMT8) is reported as roughly 1.5 µM and the IC50 (PRMT9) is reported as 0.138 µM.
